Experimental data taken from BigSolDB 2.1.

Compound: Cc1ccc(Nc2nccc(N(C)c3ccc4c(C)n(C)nc4c3)n2)cc1S(N)(=O)=O
- solubility (mole fraction) (in acetonitrile, 288.15 K): 1.08e-06
- solubility (mole fraction) (in acetonitrile, 293.15 K): 3.07e-06
- solubility (mole fraction) (in acetonitrile, 298.15 K): 5.16e-06
- solubility (mole fraction) (in acetonitrile, 303.15 K): 7.86e-06
- solubility (mole fraction) (in acetonitrile, 308.15 K): 1.11e-05
- solubility (mole fraction) (in acetonitrile, 313.15 K): 1.44e-05
- solubility (mole fraction) (in acetonitrile, 318.15 K): 1.8e-05
- solubility (mole fraction) (in acetonitrile, 323.15 K): 2.21e-05
- solubility (mole fraction) (in acetonitrile, 328.15 K): 2.72e-05
- solubility (mole fraction) (in n-butanol, 288.15 K): 1.07e-05
- solubility (mole fraction) (in n-butanol, 293.15 K): 1.46e-05
- solubility (mole fraction) (in n-butanol, 298.15 K): 1.88e-05
- solubility (mole fraction) (in n-butanol, 303.15 K): 2.34e-05
- solubility (mole fraction) (in n-butanol, 308.15 K): 2.86e-05
- solubility (mole fraction) (in n-butanol, 313.15 K): 3.42e-05
- solubility (mole fraction) (in n-butanol, 318.15 K): 4.04e-05
- solubility (mole fraction) (in n-butanol, 323.15 K): 4.7e-05
- solubility (mole fraction) (in n-butanol, 328.15 K): 5.43e-05
- solubility (mole fraction) (in n-propanol, 288.15 K): 9.96e-06
- solubility (mole fraction) (in n-propanol, 293.15 K): 1.33e-05
- solubility (mole fraction) (in n-propanol, 298.15 K): 1.67e-05
- solubility (mole fraction) (in n-propanol, 303.15 K): 2.09e-05
- solubility (mole fraction) (in n-propanol, 308.15 K): 2.55e-05
- solubility (mole fraction) (in n-propanol, 313.15 K): 3.1e-05
- solubility (mole fraction) (in n-propanol, 318.15 K): 3.65e-05
- solubility (mole fraction) (in n-propanol, 323.15 K): 4.39e-05
- solubility (mole fraction) (in n-propanol, 328.15 K): 5.11e-05
